How the values were obtained:
HeLa [1] = test: Cell cycle arrest in human HeLa cells assessed as accumulation of cells at G0/G1 phase at 1.25 uM after 36 hrs by flow cytometric analysis (reference value: 66.64%); type: functional
[2] = Cytotoxicity against human Chang cells by SRB assay; type: cell-based
HeLa [3] = test: Cell cycle arrest in human HeLa cells assessed as accumulation of cells at G2/M phase at 2.5 uM after 36 hrs by flow cytometric analysis (reference value: 9.92%); type: functional
A549 = test: Cytotoxicity against human A549 cells by SRB assay; type: functional, cell-based
HeLa [4] = test: Cell cycle arrest in human HeLa cells assessed as accumulation of cells at G0/G1 phase at 10 uM after 36 hrs by flow cytometric analysis (reference value: 66.64%); type: functional
HeLa [5] = test: Cell cycle arrest in human HeLa cells assessed as accumulation of cells at G2/M phase at 1.25 uM after 36 hrs by flow cytometric analysis (reference value: 9.92%); type: functional
HeLa [6] = test: Cell cycle arrest in human HeLa cells assessed as accumulation of cells at G0/G1 phase at 5 uM after 36 hrs by flow cytometric analysis (reference value: 66.64%); type: functional
HeLa [7] = test: Cell cycle arrest in human HeLa cells assessed as accumulation of cells at G2/M phase at 10 uM after 36 hrs by flow cytometric analysis (reference value: 9.92%); type: functional
HeLa [8] = test: Cell cycle arrest in human HeLa cells assessed as accumulation of cells at S phase at 1.25 uM after 36 hrs by flow cytometric analysis (reference value: 23.44%); type: functional
HeLa [9] = test: Cell cycle arrest in human HeLa cells assessed as accumulation of cells at S phase at 5 uM after 36 hrs by flow cytometric analysis (reference value: 23.44%); type: functional
HeLa [10] = test: Cell cycle arrest in human HeLa cells assessed as accumulation of cells at G0/G1 phase at 2.5 uM after 36 hrs by flow cytometric analysis (reference value: 66.64%); type: functional
HeLa [11] = test: Cytotoxicity against human HeLa cells by SRB assay; type: functional, cell-based
HeLa [12] = test: Cell cycle arrest in human HeLa cells assessed as accumulation of cells at S phase at 2.5 uM after 36 hrs by flow cytometric analysis (reference value: 23.44%); type: functional
HeLa [13] = test: Cell cycle arrest in human HeLa cells assessed as accumulation of cells at S phase at 10 uM after 36 hrs by flow cytometric analysis (reference value: 23.44%); type: functional
HepG2 = test: Cytotoxicity against human HepG2 cells by SRB assay; type: functional, cell-based
Alpha glucosidase = Alpha glucosidase (Homo sapiens, UniProt O43451+P10253+P14410+Q2M2H8); test: Inhibition of human alpha-glucosidase expressed in Saccharomyces cerevisiae using p-nitrophenyl-alpha-D-glucopyranoside as substrate after 15 mins
HeLa [14] = test: Cell cycle arrest in human HeLa cells assessed as accumulation of cells at G2/M phase at 5 uM after 36 hrs by flow cytometric analysis (reference value: 9.92%); type: functional

IC50 (Alpha glucosidase): 17.5 µM
Structure (SMILES): COc1cc(-c2ccc(O)cc2)c(OC)c(O)c1-c1ccc(OCC=C(C)C)cc1
Activity (HeLa [1]): 49.83% | CC50 [2]: 0.31 µM | Activity (HeLa [3]): 10.54% | IC50 (A549): 0.31 µM | Activity (HeLa [4]): 42.24% | Activity (HeLa [5]): 10.74% | Activity (HeLa [6]): 42.98% | Activity (HeLa [7]): 0.55% | Activity (HeLa [8]): 39.42% | Activity (HeLa [9]): 52.69% | Activity (HeLa [10]): 43.71% | IC50 (HeLa [11]): 3.18 µM | Activity (HeLa [12]): 45.75% | Activity (HeLa [13]): 57.2% | IC50 (HepG2): 0.46 µM | Activity (HeLa [14]): 4.33%

— ChEMBL document CHEMBL4196001, “Design, semisynthesis, α-glucosidase inhibitory, cytotoxic, and antibacterial activities of p-terphenyl derivatives” (Eur J Med Chem, 2018)
